According to patent US6156700A, “3-(1,2-Benzisothiazol- and isoxazol-5-yl)-2,4(1H,3H)-pyrimidinedione or thione and 3-(1,2-benzisothiazol- and isoxazol-5-yl)-4(3H)-pyrimidinone or thione herbicidal agents” (American Cyanmid Company, priority 1998, dated 2000):
Where “and” joins values, the source holds several entries; their conditions need not be identical. Equal entries are not always repeated.

Columns and labels:
[1] = system: Morningglory, Ivyleaf, Ipomoea hederacea; experiment: Postemergence herbicidal evaluation, IPOHE; type: in vivo, (L.) Jacq.; details: 0.0630 kg/ha
Summary of the method: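 Foliar spray, 40 psi, ~0.0157–0.500 kg a.i./ha, vehicle acetone/water 1:1 with 0.5% TWEEN 20, on seedlings grown ~2 weeks. Readout: 0–9 visual injury score relative to control at 4–5 weeks.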

[2] = system: ABUTH; experiment: Postemergence herbicidal evaluation; type: in vivo
[3] = system: SETVI; experiment: Preemergence herbicidal evaluation; type: in vivo; set-up: scale not given here
[4] = system: TRZAWR; experiment: Preemergence herbicidal evaluation; type: in vivo; set-up: scale not given here
[5] = system: ECHCG; experiment: Preemergence herbicidal evaluation; type: in vivo; set-up: scale not given here
[6] = system: AMBEL; experiment: Preemergence herbicidal evaluation; type: in vivo; set-up: scale not given here
[7] = system: IPOSS; experiment: Preemergence herbicidal evaluation; type: in vivo; set-up: scale not given here
[8] = system: GALAP; experiment: Preemergence herbicidal evaluation; type: in vivo; set-up: scale not given here
[9] = system: ZEAMX; experiment: Preemergence herbicidal evaluation; type: in vivo; set-up: scale not given here
[10] = system: ABUTH; experiment: Preemergence herbicidal evaluation; type: in vivo; set-up: scale not given here
[11] = system: CHEAL; experiment: Preemergence herbicidal evaluation; type: in vivo; set-up: scale not given here
[12] = system: CASOB; experiment: Preemergence herbicidal evaluation; type: in vivo; set-up: scale not given here
[13] = system: TRZAWR; experiment: Postemergence herbicidal evaluation; type: in vivo
[14] = system: GLXMA; experiment: Postemergence herbicidal evaluation; type: in vivo
[15] = system: GLXMA; experiment: Preemergence herbicidal evaluation; type: in vivo
[16] = system: GALAP; experiment: Postemergence herbicidal evaluation; type: in vivo
[17] = system: ORYSAT; experiment: Postemergence herbicidal evaluation; type: in vivo, Oryza sativa
[18] = system: ECHCG; experiment: Postemergence herbicidal evaluation; type: in vivo
[19] = system: AMBEL; experiment: Postemergence herbicidal evaluation; type: in vivo

With `Cc1nsc2ccc(-n3c(=O)cc(C(F)(F)F)n(C)c3=O)cc12` [Compound 6, 1-Methyl-3-(3-methyl-1,2-benzisothiazol-5-yl)-6-(trifluoromethyl)-2,4(1H,3H)-pyrimidinedione] the “herbicide rating (0-9)” value [1] was 5.0, the herbicidal effect rating ([2]; 0.0157-0.0160 kg/ha) was 5.7 and 5.0 and 8.0 and the herbicidal effect rating ([2]; 0.0313-0.0320 kg/ha) was 9.0. The herbicidal effect rating ([2]; 0.0625-0.0640 kg/ha) was 9.0, the herbicidal effect rating ([2]; 0.1250 kg/ha) was 9.0 and the herbicidal effect rating ([2]; 0.2500 kg/ha) was 9.0. For the same compound, the herbicidal effect rating ([2]; 0.5000 kg/ha) was 9.0, the herbicidal effect rating ([3]; 0.0313-0.0320 kg/ha) was 8.4 and 9.0 and 5.5 and the herbicidal effect rating ([3]; 0.0620-0.0630 kg/ha) was 9.0 and 6.0. It also gave a herbicidal effect rating ([3]; 0.1250 kg/ha) of 9.0, a herbicidal effect rating ([3]; 0.2500 kg/ha) of 9.0 and a herbicidal effect rating ([3]; 0.5000 kg/ha) of 9.0. For the same compound, the herbicidal effect rating ([4]; 0.0156-0.0160 kg/ha) was 3.0 and 3.5, the herbicidal effect rating ([4]; 0.0313-0.0320 kg/ha) was 5.6 and 6.5 and 6.3 and the herbicidal effect rating ([4]; 0.0620-0.0630 kg/ha) was 7.0 and 8.3. For the same compound, the herbicidal effect rating ([4]; 0.1250 kg/ha) was 8.7, the herbicidal effect rating ([4]; 0.2500 kg/ha) was 8.0 and the herbicidal effect rating ([4]; 0.5000 kg/ha) was 9.0. The herbicidal effect rating ([5]; 0.0313-0.0320 kg/ha) was 5.6 and 8.0 and 4.5, the herbicidal effect rating ([5]; 0.0620-0.0630 kg/ha) was 9.0 and 5.5 and the herbicidal effect rating ([5]; 0.1250 kg/ha) was 6.0. The herbicidal effect rating ([5]; 0.2500 kg/ha) was 9.0, the herbicidal effect rating ([5]; 0.5000 kg/ha) was 9.0 and the herbicidal effect rating ([6]; 0.0313-0.0320 kg/ha) was 7.4 and 9.0 and 4.5. The herbicidal effect rating ([6]; 0.0620-0.0630 kg/ha) was 9.0 and 6.0, the herbicidal effect rating ([6]; 0.1250 kg/ha) was 7.0 and the herbicidal effect rating ([6]; 0.2500 kg/ha) was 9.0. For the same compound, the herbicidal effect rating ([6]; 0.5000 kg/ha) was 9.0, the herbicidal effect rating ([7]; 0.0156-0.0160 kg/ha) was 7.5 and the herbicidal effect rating ([7]; 0.0313-0.0320 kg/ha) was 7.5 and 7.0. The herbicidal effect rating ([7]; 0.0620-0.0630 kg/ha) was 7.0, the herbicidal effect rating ([7]; 0.1250 kg/ha) was 9.0 and the herbicidal effect rating ([7]; 0.2500 kg/ha) was 9.0. The herbicidal effect rating ([7]; 0.5000 kg/ha) was 9.0, the herbicidal effect rating ([8]; 0.0156-0.0160 kg/ha) was 4.8 and 8.5 and the herbicidal effect rating ([8]; 0.0313-0.0320 kg/ha) was 5.3 and 8.5 and 9.0. The herbicidal effect rating ([8]; 0.0620-0.0630 kg/ha) was 9.0, the herbicidal effect rating ([8]; 0.1250 kg/ha) was 9.0 and the herbicidal effect rating ([8]; 0.2500 kg/ha) was 9.0. For the same compound, the herbicidal effect rating ([8]; 0.5000 kg/ha) was 9.0, the herbicidal effect rating ([9]; 0.0313-0.0320 kg/ha) was 4.2 and 7.5 and 5.3 and the herbicidal effect rating ([9]; 0.0620-0.0630 kg/ha) was 8.0 and 6.0. For the same compound, the herbicidal effect rating ([9]; 0.1250 kg/ha) was 6.5, the herbicidal effect rating ([9]; 0.2500 kg/ha) was 9.0 and the herbicidal effect rating ([9]; 0.5000 kg/ha) was 9.0. For the same compound, the herbicidal effect rating ([10]; 0.0313-0.0320 kg/ha) was 9.0 and 4.5, the herbicidal effect rating ([10]; 0.0620-0.0630 kg/ha) was 9.0 and the herbicidal effect rating ([10]; 0.1250 kg/ha) was 9.0. For the same compound, the herbicidal effect rating ([10]; 0.2500 kg/ha) was 9.0, the herbicidal effect rating ([10]; 0.5000 kg/ha) was 9.0 and the herbicidal effect rating ([11]; 0.0156-0.0160 kg/ha) was 8.8 and 9.0 and 5.0. For the same compound, the herbicidal effect rating ([11]; 0.0313-0.0320 kg/ha) was 9.0 and 8.0, the herbicidal effect rating ([11]; 0.0620-0.0630 kg/ha) was 9.0 and the herbicidal effect rating ([11]; 0.1250 kg/ha) was 9.0. For the same compound, the herbicidal effect rating ([11]; 0.2500 kg/ha) was 9.0, the herbicidal effect rating ([11]; 0.5000 kg/ha) was 9.0 and the herbicidal effect rating ([12]; 0.0313-0.0320 kg/ha) was 6.0 and 9.0 and 4.5. For the same compound, the herbicidal effect rating ([12]; 0.0620-0.0630 kg/ha) was 7.0 and 5.5, the herbicidal effect rating ([12]; 0.1250 kg/ha) was 6.5 and the herbicidal effect rating ([12]; 0.2500 kg/ha) was 9.0. For the same compound, the herbicidal effect rating ([12]; 0.5000 kg/ha) was 9.0, the herbicidal effect rating ([13]; 0.0625-0.0640 kg/ha) was 3.0 and 1.5 and 2.0 and the herbicidal effect rating ([13]; 0.1250 kg/ha) was 2.5. For the same compound, the herbicidal effect rating ([13]; 0.2500 kg/ha) was 5.0, the herbicidal effect rating ([13]; 0.5000 kg/ha) was 6.0 and the herbicidal effect rating ([14]; 0.0157-0.0160 kg/ha) was 2.5 and 4.0. For the same compound, the herbicidal effect rating ([14]; 0.0313-0.0320 kg/ha) was 5.0 and 4.0, the herbicidal effect rating ([14]; 0.0625-0.0640 kg/ha) was 4.0 and the herbicidal effect rating ([14]; 0.1250 kg/ha) was 6.0. It also gave a herbicidal effect rating ([14]; 0.2500 kg/ha) of 6.0, a herbicidal effect rating ([14]; 0.5000 kg/ha) of 7.0 and a herbicidal effect rating ([15]; 0.0156-0.0160 kg/ha) of 2.0. For the same compound, the herbicidal effect rating ([15]; 0.0313-0.0320 kg/ha) was 2.0, the herbicidal effect rating ([15]; 0.0620-0.0630 kg/ha) was 4.0 and the herbicidal effect rating ([15]; 0.1250 kg/ha) was 7.0. For the same compound, the herbicidal effect rating ([15]; 0.2500 kg/ha) was 9.0, the herbicidal effect rating ([15]; 0.5000 kg/ha) was 9.0 and the herbicidal effect rating ([16]; 0.0625-0.0640 kg/ha) was 9.0 and 5.0. It also gave a herbicidal effect rating ([16]; 0.1250 kg/ha) of 9.0, a herbicidal effect rating ([16]; 0.2500 kg/ha) of 9.0 and a herbicidal effect rating ([16]; 0.5000 kg/ha) of 9.0. For the same compound, the herbicidal effect rating ([17]; 0.0313-0.0320 kg/ha) was 1.5 and 1.0, the herbicidal effect rating ([17]; 0.0625-0.0640 kg/ha) was 1.0 and 1.8 and 1.5 and the herbicidal effect rating ([17]; 0.1250 kg/ha) was 4.5. For the same compound, the herbicidal effect rating ([17]; 0.2500 kg/ha) was 5.0, the herbicidal effect rating ([17]; 0.5000 kg/ha) was 5.0 and the herbicidal effect rating ([18]; 0.0313-0.0320 kg/ha) was 1.0 and 2.0. The herbicidal effect rating ([18]; 0.0625-0.0640 kg/ha) was 3.0 and 1.5 and 2.0, the herbicidal effect rating ([18]; 0.1250 kg/ha) was 7.0 and the herbicidal effect rating ([18]; 0.2500 kg/ha) was 6.0. The herbicidal effect rating ([18]; 0.5000 kg/ha) was 7.0, the herbicidal effect rating ([19]; 0.0313-0.0320 kg/ha) was 9.0 and 6.0 and 8.0 and the herbicidal effect rating ([19]; 0.0625-0.0640 kg/ha) was 9.0 and 6.5. It also gave a herbicidal effect rating ([19]; 0.1250 kg/ha) of 9.0, a herbicidal effect rating ([19]; 0.2500 kg/ha) of 9.0 and a herbicidal effect rating ([19]; 0.5000 kg/ha) of 9.0.
